The text below walks through data of patent US11229655B2, “Fulvestrant formulations” (Fresenius Kabi USA, LLC, priority 2014, dated 2022).

A short description of series [1]: Fulvestrant solubility in castor oil based liquid formulations, HPLC assay. It is filed as physicochemical. Conditions: castor oil q.s., 10% w/v ethanol, 10% w/v benzyl alcohol. Here is the method: To determine the effect of other compounds on the solubility of fulvestrant in a castor oil vehicle containing 10% ethanol and 10% benzyl alcohol, several liquid formulations were prepared by mixing using standard techniques, as summarized in Table 1. Fulvestrant solubility in each formulation was determined by an HPLC assay.

For series [2] the following is noted: U.S. Pat. No. 6,774,122, cited from earlier work.
The conditions of series [3]: cited from earlier work.

Converted amounts (≈) assume the structure as drawn. Where two headings read alike, the source gives them in different places.

With `C[C@]12CC[C@@H]3c4ccc(O)cc4C[C@@H](CCCCCCCCC[S+]([O-])CCCC(F)(F)C(F)(F)F)[C@H]3[C@@H]1CC[C@@H]2O` (stereo partly drawn) [Fulvestrant, 7α-[9-(4,4,5,5,5-pentafluoropentylsulfinyl)nonyl]oestra-1,3,5(10)-triene 3,17 β-diol], the solubility was 76.5 mg/mL (≈ 126 mM) in series [1] (castor oil based liquid formulation, oil or lipid, 0.05% w/v polysorbate 80, read-out: Solubility); 82.5 mg/mL (≈ 136 mM) in series [1] (castor oil based liquid formulation, oil or lipid, 0.1% w/v polysorbate 80, read-out: Solubility); 90 mg/mL (≈ 148 mM) in series [1] (castor oil based liquid formulation, oil or lipid, 0.16% w/v polysorbate 80, read-out: Solubility); 95 mg/mL (≈ 157 mM) in series [1] (castor oil based liquid formulation, oil or lipid, 0.2% w/v polysorbate 80, read-out: Solubility); 66.8 mg/mL (≈ 110 mM) in series [1] (castor oil based liquid formulation, oil or lipid, 15% w/v ethyl oleate, read-out: Solubility); 63.9 mg/mL (≈ 105 mM) in series [1] (castor oil based liquid formulation, oil or lipid, 15% w/v isopropyl myristate, read-out: Solubility). For the same molecule, the solubility in series [1] (castor oil based liquid formulation, oil or lipid, 15% w/v isopropyl palmitate, read-out: Solubility) is 67.6 mg/mL (≈ 111 mM); in series [1] (0.09% w/v polysorbate 80), 82.1 mg/mL (≈ 135 mM). For the same molecule, the “solubility of fulvestrant in a castor oil vehicle” value in series [2] (castor oil vehicle containing 10% ethanol, 10% benzyl alcohol, 15% benzyl benzoate) is 65 mg/mL. The “solubility of fulvestrant in castor oil” value in series [2] (castor oil) is reported as 20 mg/mL. Besides, in series [3], the solubility in water result was “practically insoluble in water”.
